{
  "source": "PubChem BioAssay (NCI)",
  "assay_in_all_cases": "NCI-60 cell line screen, 48 h",
  "key": {"[1]": {"system": "786-0 renal"}, "[2]": {"system": "A498 renal"}, "[3]": {"system": "A549 NSCLC"}, "[4]": {"system": "ACHN renal"}, "[5]": {"system": "CAKI-1 renal"}, "[6]": {"system": "CCRF-CEM leukemia"}, "[7]": {"system": "COLO 205 colon"}, "[8]": {"system": "DLD-1 colon"}, "[9]": {"system": "DMS 273 small cell lung"}, "[10]": {"system": "EKVX NSCLC"}, "[11]": {"system": "HCC-2998 colon"}, "[12]": {"system": "HCT-116 colon"}, "[13]": {"system": "HCT-15 colon"}, "[14]": {"system": "HOP-18 NSCLC"}, "[15]": {"system": "HOP-62 NSCLC"}, "[16]": {"system": "HOP-92 NSCLC"}, "[17]": {"system": "HT29 colon"}, "[18]": {"system": "IGROV1 ovarian"}, "[19]": {"system": "K-562 leukemia"}, "[20]": {"system": "KM12 colon"}, "[21]": {"system": "KM20L2 colon"}, "[22]": {"system": "LOX IMVI melanoma"}, "[23]": {"system": "LXFL 529 NSCLC"}, "[24]": {"system": "M14 melanoma"}, "[25]": {"system": "M19-MEL melanoma"}, "[26]": {"system": "MALME-3M melanoma"}, "[27]": {"system": "MOLT-4 leukemia"}, "[28]": {"system": "NCI-H226 lung"}, "[29]": {"system": "NCI-H23 lung"}, "[30]": {"system": "NCI-H460 lung"}, "[31]": {"system": "NCI-H522 lung"}, "[32]": {"system": "OVCAR-3 ovarian"}, "[33]": {"system": "OVCAR-4 ovarian"}, "[34]": {"system": "OVCAR-5 ovarian"}, "[35]": {"system": "OVCAR-8 ovarian"}, "[36]": {"system": "RPMI-8226 leukemia"}, "[37]": {"system": "RXF 393 renal"}, "[38]": {"system": "RXF-631 renal"}, "[39]": {"system": "SF-268 CNS"}, "[40]": {"system": "SF-295 CNS"}, "[41]": {"system": "SF-539 CNS"}, "[42]": {"system": "SK-MEL-2 melanoma"}, "[43]": {"system": "SK-MEL-28 melanoma"}, "[44]": {"system": "SK-MEL-5 melanoma"}, "[45]": {"system": "SN12C renal"}, "[46]": {"system": "SNB-19 CNS"}, "[47]": {"system": "SNB-75 CNS"}, "[48]": {"system": "SNB-78 CNS"}, "[49]": {"system": "SR leukemia"}, "[50]": {"system": "SW-620 colon"}, "[51]": {"system": "TK-10 renal"}, "[52]": {"system": "U251 CNS"}, "[53]": {"system": "UACC-257 melanoma"}, "[54]": {"system": "UACC-62 melanoma"}, "[55]": {"system": "UO-31 renal"}, "[56]": {"system": "XF 498 CNS"}, "[57]": {"system": "DMS 114 small cell lung"}, "[58]": {"system": "HL-60(TB) leukemia"}, "[59]": {"system": "SK-OV-3 ovarian"}},
  "note": "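48-hour exposure; five concentrations; linearly interpolated endpoints. Definition used: TGI = concentration required for complete inhibition of growth.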",
  "data": [
    {"smiles": "CC(C)CS(=O)(=O)/C(=C(\\c1ccc(Br)cc1)S(=O)(=O)CC(C)C)c1ccc(Br)cc1", "values": [
      {"measurement": "TGI", "setting": "[1]", "value": "> 100", "unit": "µM"},
      {"measurement": "TGI", "setting": "[2]", "value": 31.6, "unit": "µM"},
      {"measurement": "TGI", "setting": "[3]", "value": "> 100", "unit": "µM"},
      {"measurement": "TGI", "setting": "[4]", "value": "> 100", "unit": "µM"},
      {"measurement": "TGI", "setting": "[5]", "value": "> 100", "unit": "µM"},
      {"measurement": "TGI", "setting": "[6]", "value": "> 100", "unit": "µM"},
      {"measurement": "TGI", "setting": "[7]", "value": "> 100", "unit": "µM"},
      {"measurement": "TGI", "setting": "[8]", "value": "> 100", "unit": "µM"},
      {"measurement": "TGI", "setting": "[9]", "value": "> 100", "unit": "µM"},
      {"measurement": "TGI", "setting": "[10]", "value": "> 100", "unit": "µM"},
      {"measurement": "TGI", "setting": "[11]", "value": "> 100", "unit": "µM"},
      {"measurement": "TGI", "setting": "[12]", "value": "> 100", "unit": "µM"},
      {"measurement": "TGI", "setting": "[13]", "value": "> 100", "unit": "µM"},
      {"measurement": "TGI", "setting": "[14]", "value": "> 100", "unit": "µM"},
      {"measurement": "TGI", "setting": "[15]", "value": "> 100", "unit": "µM"},
      {"measurement": "TGI", "setting": "[16]", "value": "> 100", "unit": "µM"},
      {"measurement": "TGI", "setting": "[17]", "value": "> 100", "unit": "µM"},
      {"measurement": "TGI", "setting": "[18]", "value": 40.9, "unit": "µM"},
      {"measurement": "TGI", "setting": "[19]", "value": "> 100", "unit": "µM"},
      {"measurement": "TGI", "setting": "[20]", "value": "> 100", "unit": "µM"},
      {"measurement": "TGI", "setting": "[21]", "value": "> 100", "unit": "µM"},
      {"measurement": "TGI", "setting": "[22]", "value": "> 100", "unit": "µM"},
      {"measurement": "TGI", "setting": "[23]", "value": "> 100", "unit": "µM"},
      {"measurement": "TGI", "setting": "[24]", "value": "> 100", "unit": "µM"},
      {"measurement": "TGI", "setting": "[25]", "value": "> 100", "unit": "µM"},
      {"measurement": "TGI", "setting": "[26]", "value": "> 100", "unit": "µM"},
      {"measurement": "TGI", "setting": "[27]", "value": "> 100", "unit": "µM"},
      {"measurement": "TGI", "setting": "[28]", "value": "> 100", "unit": "µM"},
      {"measurement": "TGI", "setting": "[29]", "value": "> 100", "unit": "µM"},
      {"measurement": "TGI", "setting": "[30]", "value": "> 100", "unit": "µM"},
      {"measurement": "TGI", "setting": "[31]", "value": "> 100", "unit": "µM"},
      {"measurement": "TGI", "setting": "[32]", "value": "> 100", "unit": "µM"},
      {"measurement": "TGI", "setting": "[33]", "value": "> 100", "unit": "µM"},
      {"measurement": "TGI", "setting": "[34]", "value": "> 100", "unit": "µM"},
      {"measurement": "TGI", "setting": "[35]", "value": "> 100", "unit": "µM"},
      {"measurement": "TGI", "setting": "[36]", "value": "> 100", "unit": "µM"},
      {"measurement": "TGI", "setting": "[37]", "value": "> 100", "unit": "µM"},
      {"measurement": "TGI", "setting": "[38]", "value": "> 100", "unit": "µM"},
      {"measurement": "TGI", "setting": "[39]", "value": "> 100", "unit": "µM"},
      {"measurement": "TGI", "setting": "[40]", "value": "> 100", "unit": "µM"},
      {"measurement": "TGI", "setting": "[41]", "value": "> 100", "unit": "µM"},
      {"measurement": "TGI", "setting": "[42]", "value": "> 100", "unit": "µM"},
      {"measurement": "TGI", "setting": "[43]", "value": "> 100", "unit": "µM"},
      {"measurement": "TGI", "setting": "[44]", "value": 2.8, "unit": "µM"},
      {"measurement": "TGI", "setting": "[45]", "value": "> 100", "unit": "µM"},
      {"measurement": "TGI", "setting": "[46]", "value": "> 100", "unit": "µM"},
      {"measurement": "TGI", "setting": "[47]", "value": "> 100", "unit": "µM"},
      {"measurement": "TGI", "setting": "[48]", "value": "> 100", "unit": "µM"},
      {"measurement": "TGI", "setting": "[49]", "value": "> 100", "unit": "µM"},
      {"measurement": "TGI", "setting": "[50]", "value": "> 100", "unit": "µM"},
      {"measurement": "TGI", "setting": "[51]", "value": "> 100", "unit": "µM"},
      {"measurement": "TGI", "setting": "[52]", "value": "> 100", "unit": "µM"},
      {"measurement": "TGI", "setting": "[53]", "value": "> 100", "unit": "µM"},
      {"measurement": "TGI", "setting": "[54]", "value": "> 100", "unit": "µM"},
      {"measurement": "TGI", "setting": "[55]", "value": "> 100", "unit": "µM"},
      {"measurement": "TGI", "setting": "[56]", "value": "> 100", "unit": "µM"}
    ]},
    {"smiles": "O=C(Nc1ccc(Cl)cc1Cl)C(=O)Nn1c(=S)[nH]c2ccccc2c1=O", "values": [
      {"measurement": "TGI", "setting": "[1]", "value": "> 100", "unit": "µM"},
      {"measurement": "TGI", "setting": "[3]", "value": "> 100", "unit": "µM"},
      {"measurement": "TGI", "setting": "[6]", "value": "> 100", "unit": "µM"},
      {"measurement": "TGI", "setting": "[57]", "value": "> 100", "unit": "µM"},
      {"measurement": "TGI", "setting": "[9]", "value": "> 100", "unit": "µM"},
      {"measurement": "TGI", "setting": "[11]", "value": "> 100", "unit": "µM"},
      {"measurement": "TGI", "setting": "[12]", "value": "> 100", "unit": "µM"},
      {"measurement": "TGI", "setting": "[13]", "value": "> 100", "unit": "µM"},
      {"measurement": "TGI", "setting": "[58]", "value": "> 100", "unit": "µM"},
      {"measurement": "TGI", "setting": "[14]", "value": "> 100", "unit": "µM"},
      {"measurement": "TGI", "setting": "[19]", "value": "> 100", "unit": "µM"},
      {"measurement": "TGI", "setting": "[23]", "value": "> 100", "unit": "µM"},
      {"measurement": "TGI", "setting": "[24]", "value": "> 100", "unit": "µM"},
      {"measurement": "TGI", "setting": "[25]", "value": "> 100", "unit": "µM"},
      {"measurement": "TGI", "setting": "[26]", "value": "> 100", "unit": "µM"},
      {"measurement": "TGI", "setting": "[27]", "value": "> 100", "unit": "µM"},
      {"measurement": "TGI", "setting": "[30]", "value": "> 100", "unit": "µM"},
      {"measurement": "TGI", "setting": "[31]", "value": "> 100", "unit": "µM"},
      {"measurement": "TGI", "setting": "[32]", "value": "> 100", "unit": "µM"},
      {"measurement": "TGI", "setting": "[36]", "value": "> 100", "unit": "µM"},
      {"measurement": "TGI", "setting": "[37]", "value": "> 100", "unit": "µM"},
      {"measurement": "TGI", "setting": "[38]", "value": "> 100", "unit": "µM"},
      {"measurement": "TGI", "setting": "[39]", "value": "> 100", "unit": "µM"},
      {"measurement": "TGI", "setting": "[42]", "value": "> 100", "unit": "µM"},
      {"measurement": "TGI", "setting": "[43]", "value": "> 100", "unit": "µM"},
      {"measurement": "TGI", "setting": "[59]", "value": "> 100", "unit": "µM"},
      {"measurement": "TGI", "setting": "[48]", "value": "> 100", "unit": "µM"},
      {"measurement": "TGI", "setting": "[49]", "value": "> 100", "unit": "µM"},
      {"measurement": "TGI", "setting": "[52]", "value": "> 100", "unit": "µM"},
      {"measurement": "TGI", "setting": "[55]", "value": "> 100", "unit": "µM"}
    ]}
  ]
}
